Results on 15 compounds are retold here after ChEMBL document CHEMBL3603825, “Synthesis and evaluation of arylpiperazine-reverse amides as biased dopamine D3 receptor ligands” (Bioorg Med Chem, 2015).

“And” between values parts separate entries of the source, which are not always exact repeats. Identical values can stand only once.

Assay [1] concerns the target T1, D(3) dopamine receptor (Homo sapiens, UniProt P35462). As to the kind of experiment: Displacement of [3H]-sulpiride from human dopamine D3 receptor expressed in HEK293 cells at 100 nM after 150 mins by liquid scintillation counting. It counts as cell-based. Background: Displacement assays read how much labelled ligand stays bound in the presence of the test substance.

The target of assay [2] is T1, D(3) dopamine receptor. As to the kind of experiment: Displacement of [3H]-sulpiride from human dopamine D3 receptor expressed in HEK293 cells after 150 mins by liquid scintillation counting. The assay is classed as cell-based.
Assay [3] concerns the target T2, D(2) dopamine receptor (Homo sapiens, UniProt P14416). As to the kind of experiment: Displacement of [3H]-sulpiride from human dopamine D2 receptor expressed in HEK293 cells after 150 mins by liquid scintillation counting. The assay is classed as cell-based.
For assay [4], the species on record is Homo sapiens. As to the kind of experiment: Selectivity ratio of Ki for human dopamine D2 receptor to Ki for human dopamine D3 receptor.
Assay [5] deals with T2, D(2) dopamine receptor. As to the kind of experiment: Displacement of [3H]-sulpiride from human dopamine D2 receptor expressed in HEK293 cells at 100 nM after 150 mins by liquid scintillation counting. It counts as cell-based.

T2 sequence (P14416 whole entry): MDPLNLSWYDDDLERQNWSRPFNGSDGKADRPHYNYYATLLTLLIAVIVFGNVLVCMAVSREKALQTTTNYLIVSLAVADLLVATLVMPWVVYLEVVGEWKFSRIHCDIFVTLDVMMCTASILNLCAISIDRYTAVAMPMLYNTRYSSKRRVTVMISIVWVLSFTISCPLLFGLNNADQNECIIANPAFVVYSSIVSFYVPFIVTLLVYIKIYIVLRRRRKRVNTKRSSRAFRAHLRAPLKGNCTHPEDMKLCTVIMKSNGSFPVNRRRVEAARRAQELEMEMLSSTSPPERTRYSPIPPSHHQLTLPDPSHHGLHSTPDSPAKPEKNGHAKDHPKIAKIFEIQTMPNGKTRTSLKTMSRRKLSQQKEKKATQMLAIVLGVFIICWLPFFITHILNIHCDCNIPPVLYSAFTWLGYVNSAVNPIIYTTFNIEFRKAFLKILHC
T1 sequence (P35462 whole entry): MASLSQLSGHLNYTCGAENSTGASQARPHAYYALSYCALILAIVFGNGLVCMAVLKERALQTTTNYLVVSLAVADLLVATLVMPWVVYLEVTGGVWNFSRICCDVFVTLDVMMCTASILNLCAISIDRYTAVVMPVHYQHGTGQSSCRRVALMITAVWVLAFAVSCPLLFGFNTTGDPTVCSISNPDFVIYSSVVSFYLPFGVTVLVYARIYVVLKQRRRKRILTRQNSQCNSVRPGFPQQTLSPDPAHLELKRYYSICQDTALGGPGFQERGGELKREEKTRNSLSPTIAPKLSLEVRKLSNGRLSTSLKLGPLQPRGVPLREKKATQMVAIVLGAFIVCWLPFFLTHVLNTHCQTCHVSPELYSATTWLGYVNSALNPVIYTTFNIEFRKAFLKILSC

For `O=C(CCCCN1CCN(c2ccccc2F)CC1)Nc1nc2ccccc2s1`, the inhibition (in general, the relative decrease from the control value, in per cent) in assay [1] was 75.1% and 63.1%. Moreover, the figures for the Ki in assay [2] and in assay [3] were 3.9 nM and 175 nM, respectively. Also, the Ratio Ki in assay [4] amounted to 45.

As to `COc1ccc2nc(NC(=O)CCCCN3CCN(c4ccc(Cl)cc4)CC3)sc2c1`, the Ki (in general, a measure of affinity in units of concentration, obtained from inhibition or displacement) in assay [2] is 9.4 nM; in assay [3], 197 nM. In addition, in assay [4], the Ratio Ki came out at 21.

Take `COc1ccc2nc(NC(=O)CCCCN3CCN(c4ccc(Cl)cc4F)CC3)sc2c1`: the inhibition is 33.4% and 28.7% in assay [1]; 3.1% and 2.6% in assay [5].

As to `O=C(CCCCN1CCN(c2ccc(Cl)cc2)CC1)Nc1nc2ccc([N+](=O)[O-])cc2s1`, the inhibition in assay [1] worked out at 45.2%; in assay [5] it was 30.2%.

For the compound `O=C(CCCCN1CCN(c2cccc(Cl)c2Cl)CC1)Nc1nc2ccccc2s1`, the inhibition is 34.8% and 12.8% in assay [1]; 30.1% and 6.9% in assay [5].

`O=C(CCCCN1CCN(c2ccc(Cl)cc2)CC1)Nc1nc2ccccc2o1`: the results for the inhibition in assay [1] and in assay [5] were 56.1% and 40.9%, respectively.

With `COc1ccc2nc(NC(=O)CCCCN3CCN(c4ccccc4Cl)CC3)sc2c1`, the inhibition in assay [1] is 60.5% and 81.6%; in assay [5] it was 78.8% and 54.5%.

As to `O=C(CCCCN1CCN(c2ccc(Cl)cc2)CC1)Nc1nc2ccccc2s1`, the inhibition in assay [1] came to 65.2%; in assay [5], 57.3%.

Regarding `O=C(CCCCN1CCN(c2ccc(Cl)cc2)CC1)Nc1nc2ccccc2[nH]1`, the results for the inhibition in assay [1] and in assay [5] were 35.5% and 29.9%, respectively.

As to `Cc1ccc2nc(NC(=O)CCCCN3CCN(c4ccc(Cl)cc4)CC3)sc2c1`, the inhibition in assay [1] is 13.4%; in assay [5] it was 1%.

With `O=C(CCCCN1CCN(c2ccc(Cl)cc2)CC1)Nc1nc2cc(Cl)ccc2o1`, the inhibition in assay [1] was 1.7%; in assay [5], -4.1%.

With `O=C(CCCCN1CCN(c2ccc(Cl)cc2)CC1)Nc1nc2ccc(Cl)cc2s1`, the inhibition was 30.3% and 26.2% in assay [1]; 7% and 11% in assay [5].

For the compound `O=C(CCCCN1CCC(O)(c2ccc(Cl)cc2)CC1)Nc1nc2ccccc2s1`, the inhibition is 25.8% and 7.9% in assay [1]; 33.3% and 24.8% in assay [5].

In the case of `O=C(CCCCN1CCN(c2ccc(Cl)cc2Cl)CC1)Nc1nc2ccccc2s1`, the inhibition in assay [1] is 46% and 48.3%; in assay [5], 14.5% and 15.2%. Further, the Ki was found to be 87.6 nM in assay [2] and 5590 nM in assay [3]. Besides, the Ratio Ki in assay [4] was found to be 63.8.

As to `O=C(CCCCN1CCN(c2cccc(C(F)(F)F)c2)CC1)Nc1nc2ccccc2[nH]1`, the inhibition in assay [1] is 27.7% and 34.9%; in assay [5] it was 34% and 14.3%.
